Publication PMC7551886, “Antitumour Effects of Astaxanthin and Adonixanthin on Glioblastoma” (Marine Drugs, 2020)

Experiments:
GL261 cells [1] = experiment: Cell viability (CCK-8 assay) in GL261; format: cell-based, mouse; conditions: GL261, treated for 96 h
Method: (§1) U251MG, GL261, or U87MG cells were seeded onto 96-well plates at a density of 2 × 10^3 cells/well with DMEM supplemented with 10% FBS and then incubated for 24 h, after which the culture medium was changed to DMEM containing 10% FBS. Then, astaxanthin, adonixanthin or temozolomide (Tokyo Chemical Industry Co., Ltd., Tokyo, Japan) were added to the culture. Cell proliferation was determined using the CCK-8 assay according to the manufacturer’s instructions (Dojindo, Kumamoto, Japan). After each incubation, 10 μL of CCK-8 solution were added to each well. Plates were incubated for 3 h for 37 °C, and the absorbance was read at 450 nm with a reference wavelength of 630 nm using a Varioscan Flash 2.4 microplate reader (Thermo Fisher Scientific, Waltham, MA, USA).

U251MG cells [2] = experiment: Cell viability (CCK-8 assay) in U251MG; format: cell-based, human; conditions: treated for 96 h
Method: as §1

GL261 cells [3] = experiment: BrdU cell proliferation assay; format: cell-based, mouse; conditions: GL261, 10 µM treatment for 72 h; control group 60.56 ± 1.40%
Method: GL261 cells were seeded onto 96-well plates at a density of 2 × 10^3 cells/well with DMEM supplemented with 10% FBS and then incubated for 24 h, after which the culture medium was changed to DMEM containing 10% FBS. Then, astaxanthin, adonixanthin, or temozolomide (Tokyo Chemical Industry Co., Ltd., Tokyo, Japan) were added to the culture. After 72 h of culture, the culture medium was changed to DMEM containing 10% FBS and treated with BrdU at 10 µM for 3 h. After that, immunocytochemistry was performed according to the protocol of anti-BrdU antibody (abcam, ab6326).

U251MG cells [4] = experiment: Wound healing (cell migration) assay in U251MG; format: cell-based, human; conditions: 10 µM, 48 h
Method: The cell migration assay was conducted as previously described. GL261 cells and U251 cells (2.0 × 10^4 cells per well) were plated in a 12-well plate (BD Biosciences, Tokyo, Japan) with culture medium supplemented with 10% FBS. After 24 h of incubation, the medium was changed to DMEM containing 1% FBS. After 6 h, wounds were scratched by a P1000 pipette tip and washed with phosphate-buffered saline (PBS) to eliminate cell debris. Then, fresh medium was added with 10 µM astaxanthin or adonixanthin. Pictures were taken at 48 h and these scratched areas were measured using an All-in-One Fluorescence Microscope (BZ-X710; Keyence, Osaka, Japan). The cell migration rate was measured the area of the wound before migration (S0) and after migration (S1) and calculated […]. The control group was then standardized to be 100%. Wound widths at 0 h were created within 1 to 1.5 mm and data were excluded if they were not suitable for that width.

ERK1/2 = experiment: Immunoblotting, phosphorylation of ERK1/2 in GL261; format: cell-based, mouse; conditions: GL261, 10 µM, 6 h post-treatment
Method: (§2) GL261 cell was seeded at 2.5 × 10^4 cells per well in 24-well plates with culture medium supplemented with 10% FBS. After 24 h of incubation, the medium was changed to DMEM containing 10% FBS and 0.1%DMSO PBS, 300 μM temozolomide, 10 μM astaxanthin, or 10 μM adonixanthin was added for 6 and 48 h. Cells were lysed in a special buffer (RIPA buffer R0278; Sigma-Aldrich, St. Louis, MO, USA) with a protease inhibitor cocktail (Sigma-Aldrich), phosphatase inhibitor cocktails 2 and 3 (Sigma-Aldrich), and sample buffer (Wako, Osaka, Japan). The protein concentration was determined by comparison with a known concentration of bovine serum albumin using the BCA Protein Assay Kit (Thermo Fisher Scientific). The amount of total protein was 2 μg. […] The band intensity was […] using an Immuno Star LD (Wako). Band intensity was measured using an LAS-4000 UV mini Luminescent Image Analyzer (Fujifilm, Tokyo Japan) and Multi Gauge Version 3.0 (Fujifilm). The phosphorylation of ERK1/2, Akt, and p38 MAPK was measured by normalizing against total ERK1/2, total Akt, and total p38 MAPK. […]

[5] = system: p38 mitogen-activated protein kinase; experiment: Immunoblotting, phosphorylation of p38 MAPK in GL261; format: cell-based, mouse; conditions: GL261, 10 µM, 48 h
Method: as §2

cyclin D1 = experiment: Immunoblotting, cyclin D1 expression in GL261; format: cell-based, mouse; conditions: GL261, 10 µM, 48 h
Method: as §2

p27 = experiment: Immunoblotting, p27 expression in GL261; format: cell-based, mouse; conditions: GL261, 10 µM, 48 h
Method: as §2, with “μg. Equal amounts of protein in sample buffer containing 10% 2-mercaptoethanol were subjected to sodium dodecyl sulphate polyacrylamide gel electrophoresis (SDS-PAGE) in 5-20% gradient gels (SuperSep Ace; Wako), and the separated proteins were transferred to polyvinylidene difluoride membrane (Immobilon-P; Merck Millipore Corporation, Bedford, MA, USA). After blocking for 30 min with Blocking One-P (Nacalai Tesque), we incubated the membranes with primary antibodies overnight at 4 °C.” for “μg.”

MMP-2 = experiment: Immunoblotting, MMP-2 expression in GL261; format: cell-based, mouse; conditions: GL261, 10 µM, 48 h
Method: as §2

NADPH oxidase 4 (Nox4) = experiment: Immunoblotting, Nox4 expression in GL261; format: cell-based, mouse; conditions: GL261, 10 µM, 6 h
Method: as §2

SMILES	concentration above which cell viability was suppressed (GL261 cells [1])	concentration above which cell viability was suppressed (U251MG cells [2])	BrdU-positive cell rate (GL261 cells [3])	suppression of cell migration (U251MG cells [4])	phosphorylation of ERK1/2 (ERK1/2)	phosphorylation of p38 MAPK [5]	expression of cyclin D1 (cyclin D1)	expression of p27 (p27)	MMP-2 expression (MMP-2)	expression of Nox4 (NADPH oxidase 4 (Nox4))
CC1=C(/C=C/C(C)=C/C=C/C(C)=C/C=C/C=C(C)/C=C/C=C(C)/C=C/C2=C(C)C(=O)[C@@H](O)CC2(C)C)C(C)(C)C[C@H](O)C1 [Adonixanthin, adonixanthin]	> 0.1 µM	> 0.1 µM	41.31 ± 1.51%	26.32 ± 5.14%	decreased	increased	decreased	increased	decreased	significantly decreased
CC1=C(/C=C/C(C)=C/C=C/C(C)=C/C=C/C=C(C)/C=C/C=C(C)/C=C/C2=C(C)C(=O)[C@@H](O)CC2(C)C)C(C)(C)C[C@H](O)C1=O [Astaxanthin, astaxanthin]	more than 5 µM	more than 1 µM	49.13 ± 2.66%	21.15 ± 1.84%	decreased	increased	decreased	increased	decreased	no change
